What follows are compounds tested on K562 cells (assay: GYPA gene expression in K562 cells (quantitative real-time PCR)). Settings: olive leaf components alone or in combination.
Type: cell-based, human
Procedure: K562 cells (Riken Cell Bank) were seeded in a 6-well plate using RPMI 1640 Medium (Gibco Waltham, MA, USA) containing 10% FBS and 1% penicillin/streptomycin solution added to a cell concentration of 2×10^4 cell/ml, and the cells were cultured in 5% CO2 at 37° C., 95% humidification. On the following day, the medium was replaced with a mixed solution of oleuropein (OP) and oleuroside (OS), and reaction was conducted for 6 days. The mixing proportions were as follows: (a) combinations of 35.36 μM OP and different concentrations of OS (1.18, 3.54, 5.23, 7.10, 17.68, 23.57, 35.36 and 43.85 μM), and (b) combinations of 5.23 μM OS and different concentrations of OP (0.52, 2.62, 5.23, 10.46, 20.92, 35.36, 41.84 and 52.30 μM). The medium was replaced every 3 days.
After 6 days of reaction, the medium was removed from the cells, Isogen (Nippon Gene Co., Ltd.) was added for sonication, and the total RNA was extracted according to the manufacturer's protocol. The RNA concentration was measured using a NanoDrop 2000 spectrometer (Thermo Scientific, USA). For cDNA synthesis, 4 μl of SuperScript IV VILO Master Mix (Invitrogen) and 16 μl of total RNA solution (final RNA concentration: 10 ng/20 μl) were mixed in a PCR tube, and a MiniAmp Plus thermal cycler (Applied Biosystems) was used for reverse transcription. The thermal cycle was 10 minutes at 25° C., 10 minutes at 50° C., 5 minutes at 85° C. and 1 minute at 4° C. Quantitative real-time PCR was carried out for gene expression analysis. The Taqman primer and probe set used for the target gene expression analysis was the following: GYPA (Hs011068079_s1). ACTB (Hs03023880 g1 was used as the endogenous standard. For Taqman real-time PCR amplification reaction and gene expression level quantitation, 10 μL of TaqMan Gene Expression Master Mix (Applied Biosystems), 1 μL of each primer and probe set and 9 μL of cDNA (final cDNA concentration: […]) were mixed, and an AB 7500 Fast Real-Time PCR system (Applied Biosystems) was used. The thermal cycle was 2 minutes at 50° C., 10 minutes at 95° C., 15 seconds at 95° C. (50 cycles) and 1 minute at 60° C. The gene expression levels were calculated by the ΔΔCt method.
Two types of olive leaf extract with different content ratios of oleuropein and oleuroside were used to treat K562 cells, and the GYPA gene expression levels were measured by real-time PCR, as an erythroid differentiation marker. The test substances used were olive leaf extract A: 120 μg/mL (1.89 μg oleuroside: 15.44 μg oleuropein) (“extract A”, corresponding to the invention), and olive leaf extract B: 120 μg/mL (1.56 μg oleuroside: 40.26 μg oleuropein) (“extract B”).
The hydroxytyrosol, oleuropein, oleuroside, apigenin, apigenin-7-glucoside, apigenin-7-O-rutinoside, luteolin and luteolin-7-O-glucoside present in olive leaves were used either alone or in combination to measure the GYPA gene expression effect by the same method as for the synergistic effect with OP/OS at 10:1 to 1:10 using GYPA as the marker. GYPA gene expression increased only with the combination of oleuroside and oleuropein.
For `O=c1cc(-c2ccc(O)cc2)oc2cc(O[C@@H]3O[C@H](CO)[C@@H](O)[C@H](O)[C@H]3O)cc(O)c12` [A7G, Apigenin-7-O-glucoside], the GYPA expression increase was “No”.
`C[C@@H]1O[C@@H](OC[C@H]2O[C@@H](Oc3cc(O)c4c(=O)cc(-c5ccc(O)cc5)oc4c3)[C@H](O)[C@@H](O)[C@@H]2O)[C@H](O)[C@H](O)[C@H]1O` [A7R, Apigenin-7-O-rutinoside] was tested, and the GYPA expression increase was “No”.
With `O=c1cc(-c2ccc(O)cc2)oc2cc(O)cc(O)c12` [A, Apigenin] the GYPA expression increase was “No”.
For `O=c1cc(-c2ccc(O)c(O)c2)oc2cc(O[C@@H]3O[C@H](CO)[C@@H](O)[C@H](O)[C@H]3O)cc(O)c12` [L7G, Luteolin-7-O-glucoside], the GYPA expression increase was “No”.
In the case of `O=c1cc(-c2ccc(O)c(O)c2)oc2cc(O)cc(O)c12` [L, Luteolin], the GYPA expression increase is reported as “No”.
For `C/C=C1/[C@H](O[C@@H]2O[C@H](CO)[C@@H](O)[C@H](O)[C@H]2O)OC=C(C(=O)OC)[C@H]1CC(=O)OCCc1ccc(O)c(O)c1` [OP, Oleuropein], the GYPA expression increase was “No”.

Same assay, conditions: olive leaf components alone or in combination, listed as oleuropein
With `C/C=C1/[C@H](O[C@@H]2O[C@H](CO)[C@@H](O)[C@H](O)[C@H]2O)OC=C(C(=O)OC)[C@H]1CC(=O)OCCc1ccc(O)c(O)c1` [OP, Oleuropein] the GYPA expression increase was “No effect”.

Reference: patent publication US12551523B2, “HIF-1 activator” (NUTRITION ACT CO., LTD., priority 2021, dated 2026)
